“Also recorded” adds a separate entry of the source.
Legend:
[1] = Peptide cyclization kinetics with model peptide CGK-5; conditions: 500 μM CGK-5, 550 μM linker, RT; for cyclization of CGK-5 (in words): ABC buffer pH 7.4, 1 mM TCEP, 2 h, LC-MS; for half-life of the cyclization reaction with CGK-5: ammonium bicarbonate (ABC) buffer, TCEP, HPLC, one-phase association, mean ± 95% CI, at least three independent experiments
Text: While pCAmCP and mCAmCP gave efficient cyclization of the peptide fusion of sfGFP, we looked to further investigate the specificity of the reaction using peptide kinetic assays. To do this, we first established reactivity of the compounds with a model peptide (CGK-5, Figures 3A and S16) that was composed of two cysteines flanking a region tuned for solubility in buffer (GGKGG) and with a tryptophan residue on the C-terminus for UV absorbance. […] To test the specificity of the reaction for the N-terminal cysteine, we synthesized a peptide analogue (CGK-5Abu, Figures 3D–F and S17) that contained 2-aminobutyric acid in place of the N-terminal cysteine. […] Since these reactions occurred at 500 μM of peptide to allow for analysis on the HPLC, we envision this difference will likely be exaggerated when using lower peptide/protein concentrations. Although it is unlikely at neutral pH, the chloroacetamide moiety can possibly react with nucleophilic amino acids other than cysteine. To defuse this concern, we designed a peptide containing a variety of possibly nucleophilic residues (serine, arginine, tyrosine, histidine, and lysine, but not an internal cysteine) adjacent to the N-terminal cysteine (BCP, Figure S18) and let the peptide react with pCAmCP or mCAmCP. […] On the other hand, peptides that contained an internal cysteine were nearly completely reacted with the chloroacetamide after less than 2 h at the same concentrations (Figure 3B,C). This indicates high specificity for the chloroacetamide reacting with an internal cysteine in comparison to other nucleophilic residues at pH 7.4. […] It could be that the side reaction with TCEP may help mask the chloroacetamide after long incubation periods to prevent it from reacting with less reactive nucleophiles.
The peptide (CGK-5 or CGK-5Abu, 5 mM stock in water) was diluted to 500 μM in ammonium bicarbonate buffer (50 mM, pH 7.5) containing 1.2 mM TCEP. Following dilution of the peptide, the organic linker (10 mM in DMSO) was added to a final concentration of 550 μM. The reaction mixture was incubated while being shaken at RT. At each time point (5, 10, 15, 30, 45, 60, 120, and 240 min), 5 μL of reaction mixture was removed, and the reaction was quenched by the addition of 5 μL of 100 mM cysteine. Following dilution with 20 μL of water, the sample was then analyzed on a Shimadzu HPLC with an LCMS-2020 mass spectrometer attached (10–40% ACN gradient in H2O over 6 min, 0.1% formic acid, 1 mL/min flow rate, Shimadzu C18 250 × 4.6 mm, 5 μm). Peaks corresponding to the cyclized and unreacted forms were then integrated on the Shimadzu LabSolutions software, plotted in GraphPad Prism, and fitted using a one-phase association fitting parameter to determine reaction half-lives.

[2] = test system: phages (12mer phagemid library); assay: Phage infectivity (toxicity) assay, colony-forming unit assay; conditions: 50–200 μM linker, 22 or 37 °C, 3 or 24 h, 1 mM TCEP; cfu assay, n = 3
Protocol: For all experiments, phages were quantified via a colony-forming unit assay. In this assay, serial dilutions of the phage solution were prepared in 2× YT media, and 10 μL of each dilution was added to 90 μL of log-phase E. coli ER2738. Following the addition of the phage dilutions, the culture was incubated at 37 °C for 45 min, and then 10 μL was spotted in triplicate onto agar selection plates containing either 100 μg/mL ampicillin and 10 μg/mL tetracycline, which were incubated at 37 °C overnight. The following day, colonies in each spot were counted, and this number was used to calculate the number of colony-forming units in the solution.
The purified 12mer phagemid library in binding buffer was incubated with 1 mM TCEP at 37 °C for 30 min. The reduced phages were then reacted with linkers (pCAmCP or mCAmCP) or DMSO equivalents at varying concentrations (50, 100, and 200 μM) and temperatures (22 or 37 °C) for varying times (3 or 24 h). Following incubation under the various conditions, the phage solutions were then titered by using the previously described colony-forming unit assay.

[3] = test system: CA5C phages (N-terminal cysteines displayed on pIII); assay: Biotin pulldown (capture) assay of CA5C phages; conditions: 100 μM linker, RT; Biotin-CBT, streptavidin beads; vs control phage AAKAA; n = 3
Text: Following the characterization of the linkers for efficient cyclization of peptides, we then looked to characterize pCAmCP and mCAmCP for reactivity toward phage proteins. Some previously developed linkers that generate macrocyclic peptide libraries on phage hinder phage infectivity, which is likely from modifying cysteines within phage coat proteins.[26]−[28] To test if this occurred in the novel linkers, we performed toxicity assays that reacted the phages with different concentrations of linker (50–200 μM), temperatures (22 or 37 °C), and reaction times (3 or 24 h). […] We expressed phages with a CA5C peptide on the N-terminus of pIII. […] Following the precipitation of the phages, they were again reduced with TCEP and were incubated with a Biotin-CBT compound to label any unreacted N-terminal cysteines with biotin, allowing for phage capture on streptavidin beads (Figure 4B). […] Comparison with capture levels of unreacted phages indicated at least 80% and 70% reactivity of pCAmCP and mCAmCP with the CA5C phages, respectively. […]
The purified CA5C phages (10^11 to 10^12 cfu, 98 μL) in binding buffer were incubated with 1 mM TCEP at 37 °C for 30 min. […] Percent phages captured was calculated by (phages input – phages in supernatant)/phages input × 100.

| SMILES | cyclization of CGK-5 (in words) [1] | half-life of the cyclization reaction with CGK-5 [1] [min] | phage toxicity (in words) [2] | percent of phages captured after linker reaction (in words) [3] |
| --- | --- | --- | --- | --- |
| N#Cc1nccc(NC(=O)CCl)n1 [mCAmCP, 2-chloro-N-(2-cyanopyrimidin-4-yl)acetamide] | nearly complete cyclization of the peptide after 2 h | 13 ± 3 | No toxicity was observed under any of the conditions tested; also recorded: without hindering infection | reduced to levels similar to those of a control phage that lacked N-terminal cysteines |
| N#Cc1ncc(NC(=O)CCl)cn1 [pCAmCP, 2-chloro-N-(2-cyanopyrimidin-5-yl)acetamide] | nearly complete cyclization of the peptide after 2 h | 23 ± 5 | No toxicity was observed under any of the conditions tested; also recorded: without hindering infection | reduced to levels similar to those of a control phage that lacked N-terminal cysteines |
